The source of these data is patent US11229205B2, “Herbicidally active pyridyl-/pyrimidyl-pyrazine derivatives” (Syngenta Participations AG, priority 2017, dated 2022).

What all share (type): in vivo
Assay [1] relates to Alopecurus myosuroides (ALOMY). Put plainly: Pre-emergence herbicidal activity (B1). Conditions: Test 1b; pre-emergence application; rate 1000 g/ha; evaluated after 13 days; score 0-5. As for the experimental part: (§1) Seeds of a variety of test species were sown in standard soil in pots: Triticum aestivium (TRZAW), Avena fatua (AVEFA), Alopecurus myosuroides (ALOMY), Echinochloa crus-galli (ECHCG), Lolium perenne (LOLPE), Zea Mays (ZEAMX), Abutilon theophrasti (ABUTH), Amaranthus retroflexus (AMARE) and Setaria faberi (SETFA). […] The test plants were then grown in a glasshouse under controlled conditions (at 24/16° C., day/night; 14 hours light; 65% humidity) and watered twice daily. After 13 days, the test was evaluated (5=total damage to plant; 0=no damage to plant).

Assay [2] has as its system Avena fatua (AVEFA). Put plainly: Pre-emergence herbicidal activity (B1). To be noted: Test 1b; pre-emergence application; rate 1000 g/ha; evaluated after 13 days; score 0-5. As for the experimental part: as §1
Assay [3] has as its system Echinochloa crus-galli (ECHCG). Put plainly: Pre-emergence herbicidal activity (B1). Conditions: Test 1b; pre-emergence application; rate 1000 g/ha; evaluated after 13 days; score 0-5. As for the experimental part:
as §1

The test system of assay [4] is Lolium perenne (LOLPE). Kind of assay: Pre-emergence herbicidal activity (B1). Conditions: Test 1b; pre-emergence application; rate 1000 g/ha; evaluated after 13 days; score 0-5. As for the experimental part: as §1
In assay [5] the test system is Setaria faberi (SETFA). Put plainly: Pre-emergence herbicidal activity (B1). Conditions: Test 1b; pre-emergence application; rate 1000 g/ha; evaluated after 13 days; score 0-5. As for the experimental part: as §1
Assay [6] relates to Triticum aestivium (TRZAW). Kind of assay: Pre-emergence herbicidal activity (B1). Conditions: Test 1b; pre-emergence application; rate 1000 g/ha; evaluated after 13 days; score 0-5. As for the experimental part: as §1
The test system of assay [7] is Alopecurus myosuroides (ALOMY). Put plainly: Post-emergence herbicidal activity (B2). To be noted: Test B2b; post-emergence application; rate 1000 g/ha; evaluated after 13 days; score 0-5. As to the method:
as §1

Assay [8] deals with Avena fatua (AVEFA). Put plainly: Post-emergence herbicidal activity (B2). Conditions: Test B2b; post-emergence application; rate 1000 g/ha; evaluated after 13 days; score 0-5. As to the method: as §1
In assay [9] the test system is Echinochloa crus-galli (ECHCG). Put plainly: Post-emergence herbicidal activity (B2). Conditions: Test B2b; post-emergence application; rate 1000 g/ha; evaluated after 13 days; score 0-5. As to the method:
as §1

Assay [10] concerns Lolium perenne (LOLPE). Kind of assay: Post-emergence herbicidal activity (B2). To be noted: Test B2b; post-emergence application; rate 1000 g/ha; evaluated after 13 days; score 0-5. As for the experimental part: as §1
The subject of assay [11] is Setaria faberi (SETFA). Kind of assay: Post-emergence herbicidal activity (B2). Conditions: Test B2b; post-emergence application; rate 1000 g/ha; evaluated after 13 days; score 0-5. As to the method: as §1
Assay [12] concerns Triticum aestivium (TRZAW). Kind of assay: Post-emergence herbicidal activity (B2). To be noted: Test B2b; post-emergence application; rate 1000 g/ha; evaluated after 13 days; score 0-5. As for the experimental part: as §1

As for `Nc1ncc(-c2cncc(F)c2)nc1Br` [Compound G8, 2-amino-3-bromo-5-(5-fluoropyrid-3-yl)pyrazine], the “damage to plant, ALOMY” value in assay [1] and in assay [7] was 0 throughout. Moreover, the “damage to plant, AVEFA” value in the assay with Avena fatua (AVEFA) [2] and in the assay with Avena fatua (AVEFA) [8] was 0 each time. The results for the “damage to plant, ECHCG” value in [3] and in [9] were 0 and 2, respectively. The “damage to plant, LOLPE” value in the assay with Lolium perenne (LOLPE) [4] and in the assay with Lolium perenne (LOLPE) [10] was 0 each time. The “damage to plant, SETFA” value stood at 0 in the assay on Setaria faberi (SETFA) [5] and 1 in the assay with Setaria faberi (SETFA) [11]. For the same molecule, the “damage to plant, TRAZW” value in assay [6] and in assay [12] was 0 throughout.

Take `Nc1ncc(-c2cncnc2)nc1OCc1ccccc1` [Compound G10]: the “damage to plant, ALOMY” value in [1] and in assay [7] was 0 throughout. Besides, the “damage to plant, AVEFA” value with Avena fatua (AVEFA) [2] and in the assay on Avena fatua (AVEFA) [8] was 0 in each case. The “damage to plant, ECHCG” value in assay [3] is given as 0; in [9], 1. Besides, the “damage to plant, LOLPE” value in the assay on Lolium perenne (LOLPE) [4] and with Lolium perenne (LOLPE) [10] was 0 each time. Further, the “damage to plant, SETFA” value in the assay with Setaria faberi (SETFA) [5] was 0; in the assay with Setaria faberi (SETFA) [11], 1. The “damage to plant, TRAZW” value in assay [6] and in assay [12] was 0 throughout.

For the molecule `Nc1ncc(-c2cncc(F)c2)nc1OCc1ccccc1` [Compound G11], the “damage to plant, ALOMY” value in assay [1] and in [7] was 0 each time. Moreover, the “damage to plant, AVEFA” value in the assay on Avena fatua (AVEFA) [2] is 0; with Avena fatua (AVEFA) [8] it was 1. Further, the figures for the “damage to plant, ECHCG” value in [3] and in assay [9] were 0 and 1, respectively. The “damage to plant, LOLPE” value in the assay on Lolium perenne (LOLPE) [4] and in the assay on Lolium perenne (LOLPE) [10] was 0 throughout. The “damage to plant, SETFA” value with Setaria faberi (SETFA) [5] is 0; in the assay on Setaria faberi (SETFA) [11], 1. For the same molecule, the “damage to plant, TRAZW” value in assay [6] and in [12] was 0 each time.

On to `OCNc1ncc(-c2cncc(F)c2)nc1C(F)(F)F` [Compound G12, 2-hydroxymethylamino-3-trifluoromethyl-5-(5-fluoropyrid-3-yl)pyrazine], for which the “damage to plant, ALOMY” value in [1] and in assay [7] was 0 each time. Moreover, the “damage to plant, AVEFA” value was 1 with Avena fatua (AVEFA) [2] and 5 in the assay with Avena fatua (AVEFA) [8]. The “damage to plant, ECHCG” value in assay [3] turned out to be 3; in [9], 2. For the same molecule, the “damage to plant, LOLPE” value in the assay on Lolium perenne (LOLPE) [4] and in the assay with Lolium perenne (LOLPE) [10] was 0 throughout. The “damage to plant, SETFA” value in the assay with Setaria faberi (SETFA) [5] amounted to 5; in the assay with Setaria faberi (SETFA) [11], 3. The “damage to plant, TRAZW” value in [6] and in assay [12] was 0 each time.

As to `Cc1nc(-c2cncc(F)c2)cnc1N(C)C` [Compound G13, 2-dimethylamino-3-methyl-5-(5-fluoropyrid-3-yl)pyrazine], the “damage to plant, ALOMY” value in [1] and in assay [7] was 0 throughout. In addition, the “damage to plant, AVEFA” value worked out at 0 with Avena fatua (AVEFA) [2] and 1 in the assay with Avena fatua (AVEFA) [8]. In addition, the entries for the “damage to plant, ECHCG” value in assay [3] and in assay [9] were 0 and 1, respectively. In addition, the “damage to plant, LOLPE” value in the assay with Lolium perenne (LOLPE) [4] and in the assay on Lolium perenne (LOLPE) [10] was 0 throughout. Also, the “damage to plant, SETFA” value with Setaria faberi (SETFA) [5] is 1; in the assay on Setaria faberi (SETFA) [11], 3. For the same molecule, the “damage to plant, TRAZW” value in assay [6] and in assay [12] was 0 in each case.

With `C=C(C)c1nc(-c2cncc(F)c2)cnc1N` [Compound G14, 5-(5-fluoro-3-pyridyl)-3-isopropenyl-pyrazin-2-amine], the “damage to plant, ALOMY” value in assay [1] and in [7] was 0 in each case. The “damage to plant, AVEFA” value in the assay on Avena fatua (AVEFA) [2] turned out to be 0; in the assay with Avena fatua (AVEFA) [8], 1. Also, the “damage to plant, ECHCG” value in assay [3] and in assay [9] was 1 in each case. Also, the “damage to plant, LOLPE” value in the assay on Lolium perenne (LOLPE) [4] amounted to 0; in the assay on Lolium perenne (LOLPE) [10], 1. Besides, the “damage to plant, SETFA” value is reported as 2 in the assay with Setaria faberi (SETFA) [5] and 4 with Setaria faberi (SETFA) [11]. For the same molecule, the “damage to plant, TRAZW” value in assay [6] and in assay [12] was 0 throughout.

Consider `CC(C)c1nc(-c2cncc(F)c2)cnc1N` [Compound G15, 2-amino-3-(prop-2-yl)-5-(5-fluoropyrid-3-yl)pyrazine], for which the “damage to plant, ALOMY” value in assay [1] and in [7] was 0 each time. Further, the “damage to plant, AVEFA” value in the assay on Avena fatua (AVEFA) [2] and in the assay on Avena fatua (AVEFA) [8] was 0 in each case. The “damage to plant, ECHCG” value in [3] was determined as 0; in assay [9] it was 1. Moreover, the “damage to plant, LOLPE” value with Lolium perenne (LOLPE) [4] is on record as 2; with Lolium perenne (LOLPE) [10], 0. Moreover, the results for the “damage to plant, SETFA” value with Setaria faberi (SETFA) [5] and in the assay on Setaria faberi (SETFA) [11] were 0 and 4, respectively. Moreover, the “damage to plant, TRAZW” value in assay [6] and in [12] was 0 throughout.

For `CNc1ncc(-c2cncc(F)c2)nc1C` [Compound G17, 2-methylamino-3-methyl-5-(5-fluoropyrid-3-yl)pyrazine], the “damage to plant, ALOMY” value in [1] and in [7] was 0 each time. Moreover, the “damage to plant, AVEFA” value in the assay with Avena fatua (AVEFA) [2] and with Avena fatua (AVEFA) [8] was 0 each time. The “damage to plant, ECHCG” value in assay [3] is given as 0; in assay [9], 1. Moreover, the “damage to plant, LOLPE” value in the assay on Lolium perenne (LOLPE) [4] and in the assay on Lolium perenne (LOLPE) [10] was 0 in each case. Further, the figures for the “damage to plant, SETFA” value with Setaria faberi (SETFA) [5] and in the assay on Setaria faberi (SETFA) [11] were 0 and 1, respectively. Moreover, the “damage to plant, TRAZW” value in assay [6] and in assay [12] was 0 each time.

On to `C=Cc1nc(-c2cncc(F)c2)cnc1N` [Compound G18], for which the “damage to plant, ALOMY” value in assay [1] and in [7] was 0 throughout. The “damage to plant, AVEFA” value in the assay with Avena fatua (AVEFA) [2] stood at 0; with Avena fatua (AVEFA) [8] it was 1. Moreover, the “damage to plant, ECHCG” value in assay [3] was 0; in assay [9] it was 1. Moreover, the “damage to plant, LOLPE” value in the assay with Lolium perenne (LOLPE) [4] and in the assay on Lolium perenne (LOLPE) [10] was 0 each time. Besides, the “damage to plant, SETFA” value in the assay on Setaria faberi (SETFA) [5] amounted to 0; in the assay with Setaria faberi (SETFA) [11], 1. Besides, the “damage to plant, TRAZW” value in assay [6] and in assay [12] was 0 each time.

With `CCc1nc(-c2cncc(F)c2)cnc1N` [Compound G19], the “damage to plant, ALOMY” value in [1] and in [7] was 0 in each case. In addition, the results for the “damage to plant, AVEFA” value with Avena fatua (AVEFA) [2] and in the assay on Avena fatua (AVEFA) [8] were 0 and 1, respectively. Moreover, the “damage to plant, ECHCG” value is given as 1 in [3] and 2 in assay [9]. For the same molecule, the “damage to plant, LOLPE” value in the assay on Lolium perenne (LOLPE) [4] is listed as 1; with Lolium perenne (LOLPE) [10] it was 0. Also, the “damage to plant, SETFA” value in the assay with Setaria faberi (SETFA) [5] came to 4; with Setaria faberi (SETFA) [11], 3. Besides, the “damage to plant, TRAZW” value in assay [6] and in assay [12] was 0 in each case.

Regarding `C[Si](C)(C)C#Cc1nc(-c2cncc(F)c2)cnc1N` [Compound G20], the “damage to plant, ALOMY” value in [1] and in assay [7] was 0 throughout. The “damage to plant, AVEFA” value in the assay with Avena fatua (AVEFA) [2] came out at 0; in the assay on Avena fatua (AVEFA) [8] it was 1. Moreover, the “damage to plant, ECHCG” value in assay [3] and in [9] was 0 throughout. Further, the “damage to plant, LOLPE” value with Lolium perenne (LOLPE) [4] and in the assay with Lolium perenne (LOLPE) [10] was 0 in each case. Moreover, the “damage to plant, SETFA” value in the assay on Setaria faberi (SETFA) [5] and in the assay with Setaria faberi (SETFA) [11] was 0 throughout. The entries for the “damage to plant, TRAZW” value in assay [6] and in assay [12] were 0 and 1, respectively.

As to `CCCNc1ncc(-c2cncc(F)c2)nc1C(F)(F)F` [Compound G23], the “damage to plant, ALOMY” value came out at 1 in assay [1] and 0 in [7]. The “damage to plant, AVEFA” value in the assay with Avena fatua (AVEFA) [2] was found to be 0; with Avena fatua (AVEFA) [8] it was 1. Also, the entries for the “damage to plant, ECHCG” value in assay [3] and in [9] were 2 and 4, respectively. Further, the “damage to plant, LOLPE” value in the assay on Lolium perenne (LOLPE) [4] and with Lolium perenne (LOLPE) [10] was 1 in each case. Besides, the figures for the “damage to plant, SETFA” value in the assay on Setaria faberi (SETFA) [5] and with Setaria faberi (SETFA) [11] were 3 and 4, respectively. Further, the “damage to plant, TRAZW” value in assay [6] and in [12] was 0 throughout.
